From PubChem BioAssay (NCI)
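Results reflect a 48-hour exposure of cells in 96-well plates to compound at five concentrations. TGI denotes the concentration required for complete inhibition of growth.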

Experiments:
Experiment in all cases: NCI tumour cell line growth inhibition, 48 h
HL-60(TB) leukemia = test system: HL-60(TB) leukemia
NCI-H23 lung = test system: NCI-H23 lung
SNB-19 CNS = test system: SNB-19 CNS
HT29 colon = test system: HT29 colon
RXF 393 renal = test system: RXF 393 renal
ACHN renal = test system: ACHN renal
LOX IMVI melanoma = test system: LOX IMVI melanoma
SR leukemia = test system: SR leukemia
SK-MEL-5 melanoma = test system: SK-MEL-5 melanoma
U251 CNS = test system: U251 CNS
NCI-H460 lung = test system: NCI-H460 lung
SK-MEL-2 melanoma = test system: SK-MEL-2 melanoma
T-47D breast = test system: T-47D breast
COLO 205 colon = test system: COLO 205 colon
A549 NSCLC = test system: A549 NSCLC
SF-539 CNS = test system: SF-539 CNS
CAKI-1 renal = test system: CAKI-1 renal
HCC-2998 colon = test system: HCC-2998 colon
786-0 renal = test system: 786-0 renal
K-562 leukemia = test system: K-562 leukemia
TK-10 renal = test system: TK-10 renal
HS 578T breast = test system: HS 578T breast
UACC-257 melanoma = test system: UACC-257 melanoma
CCRF-CEM leukemia = test system: CCRF-CEM leukemia
NCI-H226 lung = test system: NCI-H226 lung
PC-3 prostate = test system: PC-3 prostate
MOLT-4 leukemia = test system: MOLT-4 leukemia
OVCAR-8 ovarian = test system: OVCAR-8 ovarian
OVCAR-4 ovarian = test system: OVCAR-4 ovarian
RPMI-8226 leukemia = test system: RPMI-8226 leukemia
SF-268 CNS = test system: SF-268 CNS
M14 melanoma = test system: M14 melanoma
SK-MEL-28 melanoma = test system: SK-MEL-28 melanoma
SN12C renal = test system: SN12C renal
EKVX NSCLC = test system: EKVX NSCLC
OVCAR-3 ovarian = test system: OVCAR-3 ovarian
NCI/ADR-RES ovarian = test system: NCI/ADR-RES ovarian
BT-549 breast = test system: BT-549 breast
HCT-116 colon = test system: HCT-116 colon
MDA-MB-231 breast = test system: MDA-MB-231 breast
SF-295 CNS = test system: SF-295 CNS
NCI-H522 lung = test system: NCI-H522 lung
MALME-3M melanoma = test system: MALME-3M melanoma
OVCAR-5 ovarian = test system: OVCAR-5 ovarian
KM12 colon = test system: KM12 colon
SW-620 colon = test system: SW-620 colon
HOP-62 NSCLC = test system: HOP-62 NSCLC
MDA-N = test system: MDA-N
A498 renal = test system: A498 renal
SK-OV-3 ovarian = test system: SK-OV-3 ovarian
SNB-75 CNS = test system: SNB-75 CNS
UO-31 renal = test system: UO-31 renal
HOP-92 NSCLC = test system: HOP-92 NSCLC
HCT-15 colon = test system: HCT-15 colon
MDA-MB-435 = test system: MDA-MB-435
IGROV1 ovarian = test system: IGROV1 ovarian
UACC-62 melanoma = test system: UACC-62 melanoma
DU-145 prostate = test system: DU-145 prostate

In the case of `[N-]=[N+]=Nc1c(N2CCOCC2)c(Cl)nc2ccccc12`, the TGI (HL-60(TB) leukemia) is reported as greater than 100 µM, the TGI (NCI-H23 lung) is reported as greater than 100 µM and the TGI (SNB-19 CNS) is reported as greater than 100 µM. The TGI (HT29 colon) was 72.9 µM, the TGI (RXF 393 renal) was greater than 100 µM and the TGI (ACHN renal) was greater than 100 µM. For the same molecule, the TGI (LOX IMVI melanoma) was greater than 100 µM, the TGI (SR leukemia) was greater than 100 µM and the TGI (SK-MEL-5 melanoma) was 49.6 µM. The TGI (U251 CNS) was greater than 100 µM, the TGI (NCI-H460 lung) was greater than 100 µM and the TGI (SK-MEL-2 melanoma) was greater than 100 µM. The TGI (T-47D breast) was greater than 100 µM, the TGI (COLO 205 colon) was greater than 100 µM and the TGI (A549 NSCLC) was greater than 100 µM. For the same molecule, the TGI (SF-539 CNS) was greater than 100 µM, the TGI (CAKI-1 renal) was greater than 100 µM and the TGI (HCC-2998 colon) was greater than 100 µM. It also gave a TGI (786-0 renal) greater than 100 µM, a TGI (K-562 leukemia) greater than 100 µM and a TGI (TK-10 renal) greater than 100 µM. It also gave a TGI (HS 578T breast) greater than 100 µM, a TGI (UACC-257 melanoma) of 78.3 µM and a TGI (CCRF-CEM leukemia) greater than 100 µM. It also gave a TGI (NCI-H226 lung) greater than 100 µM, a TGI (PC-3 prostate) greater than 100 µM and a TGI (MOLT-4 leukemia) greater than 100 µM. The TGI (OVCAR-8 ovarian) was greater than 100 µM, the TGI (OVCAR-4 ovarian) was greater than 100 µM and the TGI (RPMI-8226 leukemia) was greater than 100 µM. The TGI (SF-268 CNS) was greater than 100 µM, the TGI (M14 melanoma) was greater than 100 µM and the TGI (SK-MEL-28 melanoma) was greater than 100 µM. For the same molecule, the TGI (SN12C renal) was greater than 100 µM, the TGI (EKVX NSCLC) was greater than 100 µM and the TGI (OVCAR-3 ovarian) was greater than 100 µM. It also gave a TGI (NCI/ADR-RES ovarian) greater than 100 µM, a TGI (BT-549 breast) greater than 100 µM and a TGI (HCT-116 colon) greater than 100 µM. For the same molecule, the TGI (MDA-MB-231 breast) was greater than 100 µM, the TGI (SF-295 CNS) was greater than 100 µM and the TGI (NCI-H522 lung) was greater than 100 µM. The TGI (MALME-3M melanoma) was greater than 100 µM, the TGI (OVCAR-5 ovarian) was greater than 100 µM and the TGI (KM12 colon) was 88.6 µM. It also gave a TGI (SW-620 colon) greater than 100 µM, a TGI (HOP-62 NSCLC) greater than 100 µM and a TGI (MDA-N) greater than 100 µM. It also gave a TGI (A498 renal) greater than 100 µM, a TGI (SK-OV-3 ovarian) greater than 100 µM and a TGI (SNB-75 CNS) greater than 100 µM. For the same molecule, the TGI (UO-31 renal) was greater than 100 µM, the TGI (HOP-92 NSCLC) was greater than 100 µM and the TGI (HCT-15 colon) was greater than 100 µM. It also gave a TGI (MDA-MB-435) greater than 100 µM and a TGI (IGROV1 ovarian) greater than 100 µM.
`Cc1nn(C(=O)c2ccccc2O)c2c1C(c1ccco1)SC(N)=N2` (configuration not stated) showed a TGI (HL-60(TB) leukemia) greater than 10 µM, a TGI (UACC-62 melanoma) of 6 µM and a TGI (NCI-H23 lung) greater than 10 µM. For the same molecule, the TGI (SNB-19 CNS) was greater than 10 µM, the TGI (HT29 colon) was greater than 10 µM and the TGI (RXF 393 renal) was greater than 10 µM. It also gave a TGI (ACHN renal) greater than 10 µM, a TGI (LOX IMVI melanoma) greater than 10 µM and a TGI (SR leukemia) greater than 10 µM. For the same molecule, the TGI (U251 CNS) was greater than 10 µM, the TGI (NCI-H460 lung) was greater than 10 µM and the TGI (SK-MEL-2 melanoma) was greater than 10 µM. For the same molecule, the TGI (T-47D breast) was greater than 10 µM, the TGI (COLO 205 colon) was greater than 10 µM and the TGI (A549 NSCLC) was greater than 10 µM. The TGI (SF-539 CNS) was greater than 10 µM, the TGI (CAKI-1 renal) was greater than 10 µM and the TGI (786-0 renal) was greater than 10 µM. It also gave a TGI (K-562 leukemia) greater than 10 µM, a TGI (TK-10 renal) greater than 10 µM and a TGI (HS 578T breast) greater than 10 µM. The TGI (UACC-257 melanoma) was greater than 10 µM, the TGI (CCRF-CEM leukemia) was greater than 10 µM and the TGI (NCI-H226 lung) was greater than 10 µM. For the same molecule, the TGI (PC-3 prostate) was greater than 10 µM, the TGI (MOLT-4 leukemia) was greater than 10 µM and the TGI (OVCAR-8 ovarian) was greater than 10 µM. For the same molecule, the TGI (OVCAR-4 ovarian) was greater than 10 µM, the TGI (RPMI-8226 leukemia) was greater than 10 µM and the TGI (SF-268 CNS) was greater than 10 µM. For the same molecule, the TGI (M14 melanoma) was greater than 10 µM, the TGI (SK-MEL-28 melanoma) was greater than 10 µM and the TGI (SN12C renal) was greater than 10 µM. For the same molecule, the TGI (EKVX NSCLC) was greater than 10 µM, the TGI (OVCAR-3 ovarian) was greater than 10 µM and the TGI (NCI/ADR-RES ovarian) was 8.16 µM. The TGI (BT-549 breast) was greater than 10 µM, the TGI (HCT-116 colon) was greater than 10 µM and the TGI (MDA-MB-231 breast) was greater than 10 µM. It also gave a TGI (SF-295 CNS) greater than 10 µM, a TGI (MALME-3M melanoma) greater than 10 µM and a TGI (OVCAR-5 ovarian) greater than 10 µM. It also gave a TGI (KM12 colon) greater than 10 µM, a TGI (SW-620 colon) greater than 10 µM and a TGI (HOP-62 NSCLC) of 6.8 µM. It also gave a TGI (MDA-N) greater than 10 µM, a TGI (A498 renal) greater than 10 µM and a TGI (SK-OV-3 ovarian) greater than 10 µM. It also gave a TGI (SNB-75 CNS) greater than 10 µM, a TGI (UO-31 renal) greater than 10 µM and a TGI (HOP-92 NSCLC) greater than 10 µM. For the same molecule, the TGI (HCT-15 colon) was greater than 10 µM, the TGI (MDA-MB-435) was greater than 10 µM and the TGI (DU-145 prostate) was greater than 10 µM. The TGI (IGROV1 ovarian) was greater than 10 µM.
In the case of `COc1ccc(CCCNC(=O)Cc2cc(OC)c(OC)cc2CO)cc1OC`, the TGI (HL-60(TB) leukemia) is reported as greater than 100 µM, the TGI (UACC-62 melanoma) is reported as greater than 100 µM and the TGI (NCI-H23 lung) is reported as greater than 100 µM. The TGI (SNB-19 CNS) was greater than 100 µM, the TGI (HT29 colon) was greater than 100 µM and the TGI (ACHN renal) was greater than 100 µM. It also gave a TGI (LOX IMVI melanoma) greater than 100 µM, a TGI (SR leukemia) greater than 100 µM and a TGI (SK-MEL-5 melanoma) greater than 100 µM. The TGI (U251 CNS) was greater than 100 µM, the TGI (NCI-H460 lung) was greater than 100 µM and the TGI (SK-MEL-2 melanoma) was greater than 100 µM. The TGI (T-47D breast) was greater than 100 µM, the TGI (COLO 205 colon) was greater than 100 µM and the TGI (A549 NSCLC) was greater than 100 µM. For the same molecule, the TGI (CAKI-1 renal) was greater than 100 µM, the TGI (HCC-2998 colon) was greater than 100 µM and the TGI (786-0 renal) was greater than 100 µM. It also gave a TGI (K-562 leukemia) greater than 100 µM, a TGI (TK-10 renal) greater than 100 µM and a TGI (HS 578T breast) greater than 100 µM. The TGI (UACC-257 melanoma) was greater than 100 µM, the TGI (CCRF-CEM leukemia) was greater than 100 µM and the TGI (NCI-H226 lung) was greater than 100 µM. The TGI (PC-3 prostate) was greater than 100 µM, the TGI (MOLT-4 leukemia) was greater than 100 µM and the TGI (OVCAR-8 ovarian) was greater than 100 µM. It also gave a TGI (OVCAR-4 ovarian) greater than 100 µM, a TGI (M14 melanoma) greater than 100 µM and a TGI (SK-MEL-28 melanoma) greater than 100 µM. For the same molecule, the TGI (SN12C renal) was greater than 100 µM, the TGI (EKVX NSCLC) was greater than 100 µM and the TGI (OVCAR-3 ovarian) was greater than 100 µM. For the same molecule, the TGI (NCI/ADR-RES ovarian) was greater than 100 µM, the TGI (BT-549 breast) was greater than 100 µM and the TGI (HCT-116 colon) was greater than 100 µM. For the same molecule, the TGI (MDA-MB-231 breast) was greater than 100 µM, the TGI (MALME-3M melanoma) was greater than 100 µM and the TGI (OVCAR-5 ovarian) was greater than 100 µM. It also gave a TGI (KM12 colon) greater than 100 µM, a TGI (SW-620 colon) greater than 100 µM and a TGI (HOP-62 NSCLC) greater than 100 µM. It also gave a TGI (MDA-N) greater than 100 µM, a TGI (A498 renal) greater than 100 µM and a TGI (SNB-75 CNS) greater than 100 µM. For the same molecule, the TGI (UO-31 renal) was greater than 100 µM, the TGI (HOP-92 NSCLC) was greater than 100 µM and the TGI (HCT-15 colon) was greater than 100 µM. The TGI (MDA-MB-435) was greater than 100 µM, the TGI (DU-145 prostate) was greater than 100 µM and the TGI (IGROV1 ovarian) was greater than 100 µM.
